The text below walks through data of patent publication US20030124104A1, “Probiotic compositions” (priority 2001, published 2003).

What all share (assay type): cell-based
One assay relates to S. aureus. The assay can be described thus: MIC dilutions of bile acids, S. aureus.
The test system of the next assay is E. coli. Nature of the assay: MIC dilutions of bile acids, E. coli.
Another assay has as its system K. pneumoniae. The assay can be described thus: MIC dilutions of bile acids, K. pneumoniae.
The test system of another assay is B. subtilis. The assay can be described thus: MIC dilutions of bile acids, B. subtilis.
For another assay, the system named is S. pneumoniae. The assay can be described thus: MIC dilutions of bile acids, S. pneumoniae.
A further assay concerns B. clausii. Nature of the assay: MIC dilutions of bile acids, B. clausii.
A further assay has as its system E. Faecium. Nature of the assay: MIC dilutions of bile acids, E. Faecium.
In the next assay the test system is E. faecalis. Nature of the assay: MIC dilutions of bile acids, E. faecalis.
A further assay has as its system P. mirabilils. The assay can be described thus: MIC dilutions of bile acids, P. mirabilils.

The term MIC denotes the lowest concentration found to suppress growth.

“And” between values parts separate entries of the source, which are not always exact repeats. Equal values may be shown once. “Also recorded” adds a separate entry of the source. Read-outs that look alike come from different tables or passages of the source.

`C[C@H](CCC(=O)O)[C@H]1CC[C@H]2[C@@H]3CC[C@@H]4C[C@H](O)CC[C@]4(C)[C@H]3C[C@H](O)[C@]12C` [DOC, deoxycholic acid]: the minimum inhibitory concentration (MIC) entry against S. aureus was “≧20 000 μg/mL; also recorded: (≧51.2) mM”; against E. coli (E. coli) it was “≧20 μg/mL; also recorded: (≧0.05) mM”; against K. pneumoniae, “≧20 μg/mL; also recorded: (≧0.05) mM”; in the assay on B. subtilis, 78 μg/mL and (0.2) mM; against S. pneumoniae, 20 μg/mL and (0.05) mM; in the assay on B. clausii it was 78 μg/mL and (0.2) mM. In addition, the MIC in the assay on E. Faecium was 625 μg/mL and (1.6) mM; in the assay with E. faecalis it was 625 μg/mL and (1.6) mM; with P. mirabilils it was “≧20 μg/mL; also recorded: (≧0.05) mM”.

In the case of `C[C@H](CCC(=O)NCCS(=O)(=O)O)[C@H]1CC[C@H]2[C@@H]3CC[C@@H]4C[C@H](O)CC[C@]4(C)[C@H]3C[C@H](O)[C@]12C` [TDOC, tauro-deoxycholic acid], the minimal inhibitory concentration (MIC) in the assay on S. aureus (Staphylococcus aureus, read-out: MIC) was ≥ 25000 µg/mL and ≥ 51200 µM; with E. coli (Escherichia coli), ≥ 25000 µg/mL and ≥ 51200 µM; in the assay on K. pneumoniae (Klebsiella pneumoniae, read-out: MIC), ≥ 25000 µg/mL and ≥ 51200 µM; with B. subtilis (Bacillus subtilis, read-out: MIC), 195 µg/mL and 400 µM; in the assay with S. pneumoniae (Streptococcus pneumoniae, read-out: MIC), 25000 µg/mL and 51200 µM; in the assay with B. clausii (Shouchella clausii, read-out: MIC), 24 µg/mL and ≤ 50 µM. The MIC was 3120 µg/mL and 6400 µM in the assay with E. Faecium (Enterococcus faecium, read-out: MIC); 25000 µg/mL and 51200 µM in the assay on E. faecalis (Enterococcus faecalis, read-out: MIC); ≥ 25000 µg/mL and ≥ 51200 µM in the assay on P. mirabilils (read-out: MIC).
